Several values for one entry are separate records, joined by “and”; a condition that tells them apart may be missing. Equal entries are not always repeated. Entries after “also recorded” stand apart in the source; their conditions may differ.
Key:
Type in all cases: physicochemical
[1] = Kinetic solubility study in water, HPLC area of Enclomiphene peak;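 as to HPLC a/a: suspension in 24 mL Water and the filtered mother liquor analysed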;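 as to average HPLC a/a: suspension in 24 mL Water and the filtered mother liquor analysed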
Procedure: (§1) The filtered solid was analyzed by XRPD.
These HPLC conditions were used to perform solubility analysis.

[2] = Kinetic solubility study at pH 4.5 (acetic acid/sodium acetate buffer), HPLC area
Procedure: as §1
Solubility at a slightly acid medium was determined at pH 4.5 buffer used was a mixture acetic acid/sodium acetate prepared according to USP specifications. […]

[3] = Hygroscopicity by DVS (Dynamic Vapour Sorption); conditions: for water uptake / moisture sorption: at 95% RH (0-95% RH); for hygroscopicity, comparison of batches 722 and 723: between 0 and 65% RH
Procedure: This is a gravimetric technique that measures how much water is absorbed or desorbed by a sample at different relative humidity (RH). At each RH, the sample mass must be allowed to reach gravimetric equilibrium (or surpassed time limit) before progressing to the next humidity level. Sorption and desorption isotherms will be performed at 25° C. over a range of 0-95% RH. The type of sorption isotherm is determined by the pore size and surface character of the material.

SMILES | average HPLC a/a ([1]; 0 min) [a/a] | HPLC a/a ([1]; 0 min, replicate 1) [a/a] | HPLC a/a ([1]; 0 min, replicate 2) [a/a] | HPLC a/a ([1]; 0 min, replicate 3) [a/a] | average HPLC a/a ([1]; 15 min) [a/a] | HPLC a/a ([1]; 15 min, replicate 1) [a/a] | HPLC a/a ([1]; 15 min, replicate 2) [a/a] | HPLC a/a ([1]; 15 min, replicate 3) [a/a] | average HPLC a/a ([1]; 45 min) [a/a] | HPLC a/a ([1]; 45 min, replicate 1) [a/a] | HPLC a/a ([1]; 45 min, replicate 2) [a/a] | HPLC a/a ([1]; 45 min, replicate 3) [a/a] | average HPLC a/a ([1]; 90 min) [a/a] | HPLC a/a ([1]; 90 min, replicate 1) [a/a] | HPLC a/a ([1]; 90 min, replicate 2) [a/a] | HPLC a/a ([1]; 90 min, replicate 3) [a/a] | average HPLC a/a ([1]; 180 min) [a/a] | HPLC a/a ([1]; 180 min, replicate 1) [a/a] | HPLC a/a ([1]; 180 min, replicate 2) [a/a] | HPLC a/a ([1]; 180 min, replicate 3) [a/a] | further results
CCN(CC)CCOc1ccc(/C(=C(/Cl)c2ccccc2)c2ccccc2)cc1.O=C(O)CC(O)(CC(=O)O)C(=O)O [Enclomiphene citrate having needle crystals] [Ethanamine, 2-[4-[(1E)-2-chloro-1,2-diphenylethenyl]phenoxy]-N,N-diethyl-, 2-hydroxy-1,2,3-propanetricarboxylate (1:1)] | 0 | 0 | 0 | 0 | 5152 | 4099 | 6104 | 3273 | 4962 | 5206 | 5457 | 3225 | 5334 | 5085 | 5426 | 2988 | 4126 | 4120 | 5327 | 3208 | solubility in water compared with Enclomiphene citrate having non-needle shaped crystal habit ([1]; listed as Enclomiphene citrate having needle shaped crystal habit): almost double; also recorded: almost two times; Average a/a ([2]; pH 4.5, 0 min): 0 a/a; HPLC a/a ([2]; pH 4.5, 0 min, replicate 1): 0 a/a; HPLC a/a ([2]; pH 4.5, 0 min, replicate 2): 0 a/a; Average a/a ([2]; pH 4.5, 15 min): 4135 a/a; HPLC a/a ([2]; pH 4.5, 15 min, replicate 1): 3941 a/a; HPLC a/a ([2]; pH 4.5, 15 min, replicate 2): 4330 a/a; Average a/a ([2]; pH 4.5, 45 min): 4024 a/a; HPLC a/a ([2]; pH 4.5, 45 min, replicate 1): 3978 a/a; HPLC a/a ([2]; pH 4.5, 45 min, replicate 2): 4070 a/a; Average a/a ([2]; pH 4.5, 90 min): 5109 a/a; HPLC a/a ([2]; pH 4.5, 90 min, replicate 1): 4889 a/a; HPLC a/a ([2]; pH 4.5, 90 min, replicate 2): 5329 a/a; Average a/a ([2]; pH 4.5, 180 min): 5079 a/a; HPLC a/a ([2]; pH 4.5, 180 min, replicate 1): 5098 a/a; HPLC a/a ([2]; pH 4.5, 180 min, replicate 2): 5060 a/a; solubility at pH 4.5 compared with Enclomiphene citrate having non-needle crystals ([2]; pH 4.5 buffer, listed as Enclomiphene citrate having needle shaped crystal habit): four times higher; water uptake / moisture sorption ([3]; DVS, 25° C., listed as batch 723): 2.33 % weight and 2.3 % weight; hygroscopicity, comparison of batches 722 and 723 ([3]; DVS): identical
CCN(CC)CCOc1ccc(/C(=C(/Cl)c2ccccc2)c2ccccc2)cc1.O=C(O)CC(O)(CC(=O)O)C(=O)O [Enclomiphene citrate having non-needle crystals] [Ethanamine, 2-[4-[(1E)-2-chloro-1,2-diphenylethenyl]phenoxy]-N,N-diethyl-, 2-hydroxy-1,2,3-propanetricarboxylate (1:1), reference compound] | 0 | 0 | 0 | 0 | 2858 | 1819 | 3483 | 3273 | 3226 | 3083 | 3370 | 3225 | 2772 | 3229 | 2099 | 2988 | 3265 | 2991 | 3597 | 3208 | Average a/a ([2]; pH 4.5, 0 min): 0 a/a; HPLC a/a ([2]; pH 4.5, 0 min, replicate 1): 0 a/a; HPLC a/a ([2]; pH 4.5, 0 min, replicate 2): 0 a/a; Average a/a ([2]; pH 4.5, 15 min): 1185 a/a; HPLC a/a ([2]; pH 4.5, 15 min, replicate 1): 1294 a/a; HPLC a/a ([2]; pH 4.5, 15 min, replicate 2): 1077 a/a; Average a/a ([2]; pH 4.5, 45 min): 924 a/a; HPLC a/a ([2]; pH 4.5, 45 min, replicate 1): 907 a/a; HPLC a/a ([2]; pH 4.5, 45 min, replicate 2): 941 a/a; Average a/a ([2]; pH 4.5, 90 min): 1095 a/a; HPLC a/a ([2]; pH 4.5, 90 min, replicate 1): 1279 a/a; HPLC a/a ([2]; pH 4.5, 90 min, replicate 2): 912 a/a; Average a/a ([2]; pH 4.5, 180 min): 1052 a/a; HPLC a/a ([2]; pH 4.5, 180 min, replicate 1): 1008 a/a; HPLC a/a ([2]; pH 4.5, 180 min, replicate 2): 1096 a/a; water uptake / moisture sorption ([3]; DVS, 25° C., listed as batch 722): 6 % weight; moisture sorption ([3]; DVS, 25° C., between 0% and 65% RH): 2 % weight; hygroscopicity, comparison of batches 722 and 723 ([3]; DVS): identical; water absorption at high humidity ([3]; humidity higher than 65% RH (FIG. 9)): absorbs relevant amounts of water
